# Like-named read-outs stand apart in the source and are kept apart here.
# How the values were obtained:
# Test in all cases: Resazurin reduction cell viability assay
# Format in all cases: cell-based, human
# THP-1 = system: THP-1
# Procedure: (§1) Solid tumor cell lines were seeded in 100 μl medium into 96-well plates at an appropriate cell number determined by a cell dilution assay (Cal51–2000 cells/well; Colo205, MCF10A and 184A1–3000 cells/well and MDA-MB-468, HCC1954–4000 cells/well). AML suspension cells were seeded in 96-well plates at approximately 3000 cells per well. Cells were incubated overnight at 37°C, 5% CO2. The following day, 100 μl fresh medium containing increasing concentrations of appropriate compound was added and the cells were incubated for up to 72 h at 37°C, 5% CO2. For pulse treatment of solid (adherent) tumor cell lines, medium was aspirated and replaced with fresh drug-free medium. For pulse treatment of suspension lines, plates were centrifuged at 478 xg for 5 min at the end of the incubation period with compound, medium containing compound was carefully aspirated and replaced with fresh compound-free medium. A total of 72 h after the start of treatment, 20 μl of a 10X stock of resazurin sodium salt (Sigma-Aldrich, Dorset, UK) prepared in medium was added to the cells and incubated for up to 3 h. […] was measured on the Wallac Victor plate reader (Cambridge, UK) at 544–595 nm. IC50/70/90 calculations were determined in XLFit.
# OCI-AML2 = system: OCI-AML2
# Procedure: as §1
# A2780 = conditions: 6 h pulse
# Procedure: as §1
# MCF10A = system: MCF10A
# Procedure: as §1
# PC3 = system: PC3
# Procedure: as §1
# MOLM-13 = system: MOLM-13
# Procedure: as §1
# Colo205 = conditions: Homo sapiens, COLO 205, 72 h, 72 h continuous treatment; read-out: Colo205 IC50 ± SD
# Procedure: as §1
# OCI-AML5 = system: OCI-AML5
# Procedure: as §1
# 184A1 = system: 184A1
# Procedure: as §1
# MV4-11 = system: MV4-11
# Procedure: as §1
structure (smiles),measurement,setting,value
"CC[C@H](Nc1nc(NCc2cnc(C)cc2C)c2ncn(C(C)C)c2n1)[C@@H](C)O [Fadraciclib, 2-pentanol, 3-[[6-[[(4,6-dimethyl-3-pyridinyl)methyl]amino]-9-(1-methylethyl)-9Hpurin-2-yl]amino]-, (2R,3S)]",IC50,"THP-1; Homo sapiens, THP-1, 72 h, THP-1, 72 h continuous, read-out: 72 h continuous IC50 ± SD",570 ± 180 nM
same,IC50,"THP-1; Homo sapiens, THP-1, 72 h, THP-1, value the 7 x 7 combination matrix spans, 72 h, read-out: IC50 value of each compound (single agent)",430 nM
same,IC50,"THP-1; Homo sapiens, THP-1, read-out: 6 h pulse IC50 ± SD, THP-1, 6 h pulse then 66 h release",1100 nM
same,IC90,"THP-1; Homo sapiens, THP-1, 6 h pulse then 66 h release",6800 nM
same,IC50,"THP-1; read-out: 6 h pulse IC50 ± SD, THP-1, 6 h pulse then 66 h release",1080 ± 230 nM
same,IC50,"OCI-AML2; Homo sapiens, OCI-AML2, 72 h, OCI-AML2, 72 h continuous, read-out: 72 h continuous IC50 ± SD",220 ± 30 nM
same,IC50,"OCI-AML2; Homo sapiens, OCI-AML2, read-out: 6 h pulse IC50 ± SD, OCI-AML2, 6 h pulse then 66 h release",530 nM
same,IC90,"OCI-AML2; Homo sapiens, OCI-AML2, 6 h pulse then 66 h release",1800 nM
same,IC50,"OCI-AML2; read-out: 6 h pulse IC50 ± SD, OCI-AML2, 6 h pulse then 66 h release",550 ± 70 nM
same,"IC50, short pulse",A2780,submicromolar
same,IC50,"MCF10A; Homo sapiens, MCF-10A, 72 h, MCF10A, continuous 72 h, read-out: continuous IC50 ± SD",400 ± 30 nM
same,IC50,"MCF10A; Homo sapiens, MCF-10A, read-out: 8 h pulse IC50 ± SD, MCF10A (non-malignant), 8 h pulse, read at 72 h",3900 nM
same,IC50,"MCF10A; read-out: 8 h pulse IC50 ± SD, MCF10A (non-malignant), 8 h pulse, read at 72 h",3890 ± 1040 nM
same,"sensitivity, 6 h pulse versus continuous 72 h",PC3,sensitive to fadraciclib only after more prolonged treatment
same,IC50,"MOLM-13; Homo sapiens, MOLM-13, 72 h, MOLM-13, 72 h continuous, read-out: 72 h continuous IC50 ± SD",240 ± 50 nM
same,IC50,"MOLM-13; Homo sapiens, MOLM-13, read-out: 6 h pulse IC50 ± SD, MOLM-13, 6 h pulse then 66 h release",260 nM
same,IC90,"MOLM-13; Homo sapiens, MOLM-13, 6 h pulse then 66 h release",400 nM
same,IC50,"MOLM-13; read-out: 6 h pulse IC50 ± SD, MOLM-13, 6 h pulse then 66 h release",250 ± 50 nM
same,IC50,Colo205,310 nM
same,IC50,"OCI-AML5; Homo sapiens, OCI-AML-5, 72 h, OCI-AML5, 72 h continuous, read-out: 72 h continuous IC50 ± SD",310 ± 130 nM
same,IC90,"OCI-AML5; Homo sapiens, OCI-AML-5, OCI-AML5, 6 h pulse then 66 h release",18500 nM
same,IC50,"OCI-AML5; Homo sapiens, OCI-AML-5, read-out: 6 h pulse IC50 ± SD, OCI-AML5, 6 h pulse then 66 h release",1440 nM
same,IC50,"OCI-AML5; read-out: 6 h pulse IC50 ± SD, OCI-AML5, 6 h pulse then 66 h release",1450 ± 50 nM
same,IC50,"184A1; Homo sapiens, 184A1, 72 h, 184A1, continuous 72 h, read-out: continuous IC50 ± SD",250 ± 10 nM
same,IC50,"184A1; Homo sapiens, 184A1, read-out: 8 h pulse IC50 ± SD, 184A1 (non-malignant), 8 h pulse, read at 72 h",3900 nM
same,IC50,"184A1; read-out: 8 h pulse IC50 ± SD, 184A1 (non-malignant), 8 h pulse, read at 72 h",3870 ± 2100 nM
same,IC50,"MV4-11; Homo sapiens, MV4-11, 72 h, MV4-11, 72 h continuous, read-out: 72 h continuous IC50 ± SD",260 ± 80 nM
same,IC50,"MV4-11; Homo sapiens, MV4-11, read-out: 6 h pulse IC50 ± SD, MV4-11, 6 h pulse then 66 h release",500 nM
same,IC90,"MV4-11; Homo sapiens, MV4-11, 6 h pulse then 66 h release",920 nM
same,IC50,"MV4-11; read-out: 6 h pulse IC50 ± SD, MV4-11, 6 h pulse then 66 h release",510 ± 40 nM

# From article PMC7347136 (PLoS ONE, 2020)
